Data as given in patent publication US7884082B2, “Combined therapeutical treatment of hyperproliferative diseases” (Aventis Pharma SA, priority 1995, dated 2011).

Columns and labels:
[1] = tested on: various tumour cell lines; settings: various tumour cell lines in culture; cited from earlier work
[2] = tested on: H460 cells; assay: Sensitivity of transfected H460 cells to taxotere, cisplatin or camptothecin (colony count, Example 2); format: cell-based, human; settings: for apoptotic effect induced by the GAP (170-702) construction on addition of the product: added to culture medium of human tumour cells transfected with GAP(170-702), at concentrations without effect on cell viability; for apoptotic effect induced by the transfer of the Grb3-3 gene on addition of the product: added to culture medium of human tumour cells transfected with Grb3-3, at concentrations without effect on cell viability; for effect of the product alone on cell viability: concentrations used in the combination, human tumour cells
Excerpt: H460 cells transfected as described in Example 1 are subjected during selection by geneticin to a treatment for several days at different concentrations of taxotere, of cisplatin or of camptothecin. The H460/Neo^R cells and which are resistant to the chemotherapeutic agents are quantified as described in Example 1. The sensitivity to taxotere (A), to cisplatin (B) or to camptothecin (C) of the H460 cells transfected with pSV2-Neo (●), pSV2-Neo+pSV2-GAP[170-702] (▴) or pSV2-Neo+pSV2-Grb3-3 (▾) is depicted relative to cells transfected identically but in the absence of treatment with the chemotherapeutic agents. The results of an experiment which is representative of quantification of the number of colony after the different treatments mentioned are summarized in FIG. 2.

[3] = tested on: H460 cells; assay: Sensitivity of isolated H460 clones transfected with pcDNA3 or pcDNA3-p53WT to taxotere (Example 3); format: cell-based, human
Excerpt: H460 cells are transfected with cDNA coding for the wild-type p53 protein (p53^WT) placed in the plasmid pcDNA3 under the control of the CMV promoter. Plasmid pcDNA3 also contains the Neo gene placed under the control of the SV40 promoter. Cells transfected with pcDNA3 or pcDNA3-p53^WT are selected and isolated as described in Example 1. In the cells transfected with pcDNA3-p53^WT and which are resistant to geneticin, the presence of p53 is verified by western blotting using specific antibodies. FIG. 3 summarizes the results of a representative experiment in which are depicted, on the one hand the number of colonies obtained after pcDNA3 or pcDNA3-p53^WT transfection (A), and on the other hand the sensitivity of the clones isolated to a treatment with taxotere (B).

Row | SMILES | induction of apoptosis [1] | apoptotic effect induced by the GAP (170-702) construction on addition of the product [2] | apoptotic effect induced by the transfer of the Grb3-3 gene on addition of the product [2] | effect of the product alone on cell viability [2] | effect of taxotere on H460 clones expressing wild-type p53 ([3]; H460 clones resistant to the effect of p53, increasing doses of taxotere) | effect of taxotere on cells that do not express wild-type p53 ([3]; same concentrations as those killing p53-expressing clones)
1 | CC(=O)O[C@H]1C(=O)[C@@]2(C)[C@H]([C@H](OC(=O)c3ccccc3)[C@]3(O)C[C@H](OC(=O)[C@H](O)[C@@H](NC(=O)c4ccccc4)c4ccccc4)C(C)=C1C3(C)C)[C@]1(OC(C)=O)CO[C@@H]1C[C@@H]2O [Taxol, 4,10β-diacetoxy-2α-benzoyloxy-5β,20-epoxy-1β,7β-dihydroxy-9-oxo-11-taxen-13α-yl (2R,3S)-3′-benzoylamino-3′-phenyl-2′-hydroxypropionate] | induces apoptosis |  |  |  |  | 
2 | CC[C@@]1(O)C(=O)OCc2c1cc1n(c2=O)Cc2cc3ccccc3nc2-1 [camptothecin] |  | very greatly increased | very greatly increased | without effect on cell viability |  | 
3 | N.N.[Cl][Pt][Cl] [cisplatin] |  | very greatly increased | very greatly increased | without effect on cell viability |  | 
4 | CC(=O)O[C@@]12CO[C@@H]1C[C@H](O)[C@@]1(C)C(=O)[C@H](O)C3=C(C)[C@@H](OC(=O)[C@H](O)[C@@H](NC(=O)OC(C)(C)C)c4ccccc4)C[C@@](O)([C@@H](OC(=O)c4ccccc4)[C@H]21)C3(C)C [taxotere, 4-acetoxy-2α-benzoyloxy-5β,20-epoxy-1β,7β,10β-trihydroxy-9-oxo-11-taxen-13α-yl (2R,3S)-3′-t-butoxycarbonylamino-3′-phenyl-2′-hydroxypropionate] |  | very greatly increased | very greatly increased | without effect on cell viability | cells die | completely ineffective
